Reference: PMC10576769 (Nature Communications, 2023)
Several values for one entry are separate records, joined by “and”; a condition that tells them apart may be missing. Identical values can stand only once. Like-named read-outs stand apart in the source and are kept apart here. Where a SMILES comes first, the peptide text is derived from it.

Key:
[1] = tested on: LmPC-PLC^C143S; type: biochemical, Listeria monocytogenes; details: Fig. 4g, as E100
[2] = tested on: BcPC-PLC; type: biochemical, Bacillus cereus
[3] = tested on: CpPC-PLC; type: biochemical, Clostridium perfringens
[4] = tested on: LmPC-PLC^C168S; type: biochemical, Listeria monocytogenes; details: Fig. 4g, as E100
[5] = tested on: LmPC-PLC^C143S+C168S; type: biochemical, Listeria monocytogenes; details: Fig. 4g, as E100
[6] = tested on: BcPC-PLC; type: biochemical, Bacillus cereus; remark: listed apart in the source
[7] = tested on: CpPC-PLC; type: biochemical, Clostridium perfringens; remark: listed apart in the source
[8] = type: binding; details: pH 6.5
[9] = molecular target: LmPC-PLC (Listeria monocytogenes serovar 1/2a, UniProt P33378); assay: biochemical; type: biochemical; details: for Enzymatic activity towards 4-NPPC (slope): Lm 500 nM, 0 = no slope could be determined; for Enzymatic activity towards 4-NPPC (slope) / Activity of LmPC-PLC towards 4-NPPC (slope): 4-NPPC 1 mM; for Activity of LmPC-PLC towards 4-NPPC (slope): LmPC-PLC 500 nM, 20 mM MES pH 6.5, 150 mM NaCl, 50 μM ZnSO4

## C[C@H](NC(=O)[C@@H](N)CC(N)=O)C(=O)N[C@@H](CS)C(=O)N[C@@H](CS)C(=O)N[C@@H](CC(=O)O)C(=O)N[C@@H](CCC(=O)O)C(=O)O [NE-6] (H-NACCDE-OH; N-terminus and C-terminus assumed)
[1]; replicate 1
  relative activity of LmPC-PLC C143S on 4-NPPC (compared to uninhibited activity): 0.8443
[1]; replicate 2
  relative activity of LmPC-PLC C143S on 4-NPPC (compared to uninhibited activity): 0.9328
[1]; replicate 3
  relative activity of LmPC-PLC C143S on 4-NPPC (compared to uninhibited activity): 0.9098
[2]
  relative activity on POPC (compared to uninhibited activity), Bc: 1.041 and 0.8984 and 0.9777
[3]
  relative activity on POPC (compared to uninhibited activity), Cp: 1.136 and 1.059 and 1.144
[4]; replicate 1
  relative activity of LmPC-PLC C168S on 4-NPPC (compared to uninhibited activity): 0.4893
[4]; replicate 2
  relative activity of LmPC-PLC C168S on 4-NPPC (compared to uninhibited activity): 0.5344
[4]; replicate 3
  relative activity of LmPC-PLC C168S on 4-NPPC (compared to uninhibited activity): 0.4659
[5]; replicate 1
  relative activity of LmPC-PLC C143S+ C168S on 4-NPPC (compared to uninhibited activity): 1.106
[5]; replicate 2
  relative activity of LmPC-PLC C143S+ C168S on 4-NPPC (compared to uninhibited activity): 1.078
[5]; replicate 3
  relative activity of LmPC-PLC C143S+ C168S on 4-NPPC (compared to uninhibited activity): 1.062
[6]
  relative activity on 4-NPPC (compared to uninhibited activity), Bc: 0.9308 and 0.8774 and 0.8898
[7]
  relative activity on 4-NPPC (compared to uninhibited activity), Cp: 0.8963 and 0.9574 and 0.885

## c1cnc2c(c1)ccc1cccnc12 [O-phe, O-phenanthroline]
[8]
  % of LLO in the pellet fraction: 22.84%
[6]
  Enzymatic activity towards 4-NPPC (slope): 0
[9]; O-phe 1 mM + ions (50 μM ZnSO4), replicate 1
  Enzymatic activity towards 4-NPPC (slope): 0
[9]; O-phe 1 mM + ions (50 μM ZnSO4), replicate 2
  Enzymatic activity towards 4-NPPC (slope): 0
[9]; O-phe 1 mM + ions (50 μM ZnSO4), replicate 3
  Enzymatic activity towards 4-NPPC (slope): 0
[9]; O-phe 1 mM, no ions added, replicate 1
  Enzymatic activity towards 4-NPPC (slope): 0
[9]; O-phe 1 mM, no ions added, replicate 2
  Enzymatic activity towards 4-NPPC (slope): 0
[9]; O-phe 1 mM, no ions added, replicate 3
  Enzymatic activity towards 4-NPPC (slope): 0
[9]; O-phe 1 mM, 50 μM Zn2+ added to the protein, 30 min preincubation, 4-NPPC, Supplementary Fig. 9c
  inhibition of LmPC-PLC activity by O-phe: completely inhibited
[9]; inhibitor 4 uM, replicate 1 of N=3
  Activity of LmPC-PLC towards 4-NPPC (slope): 0.0003865 abs/min
[9]; inhibitor 4 uM, replicate 2 of N=3
  Activity of LmPC-PLC towards 4-NPPC (slope): 0.0003893 abs/min
[9]; inhibitor 4 uM, replicate 3 of N=3
  Activity of LmPC-PLC towards 4-NPPC (slope): 0.0004002 abs/min
[9]; inhibitor 8 uM, replicate 1 of N=3
  Activity of LmPC-PLC towards 4-NPPC (slope): 0.0003883 abs/min
[9]; inhibitor 8 uM, replicate 2 of N=3
  Activity of LmPC-PLC towards 4-NPPC (slope): 0.0003708 abs/min
[9]; inhibitor 8 uM, replicate 3 of N=3
  Activity of LmPC-PLC towards 4-NPPC (slope): 0.0003802 abs/min
[9]; inhibitor 16 uM, replicate 1 of N=3
  Activity of LmPC-PLC towards 4-NPPC (slope): 0.0003736 abs/min
[9]; inhibitor 16 uM, replicate 2 of N=3
  Activity of LmPC-PLC towards 4-NPPC (slope): 0.0003589 abs/min
[9]; inhibitor 16 uM, replicate 3 of N=3
  Activity of LmPC-PLC towards 4-NPPC (slope): 0.0003489 abs/min
[9]; inhibitor 31 uM, replicate 1 of N=3
  Activity of LmPC-PLC towards 4-NPPC (slope): 0.0003148 abs/min
[9]; inhibitor 31 uM, replicate 2 of N=3
  Activity of LmPC-PLC towards 4-NPPC (slope): 0.0003263 abs/min
[9]; inhibitor 31 uM, replicate 3 of N=3
  Activity of LmPC-PLC towards 4-NPPC (slope): 0.0003082 abs/min
[9]; inhibitor 63 uM, replicate 1 of N=3, value 0 = no slope could be determined
  Activity of LmPC-PLC towards 4-NPPC (slope): 0.0002666 abs/min
[9]; inhibitor 63 uM, replicate 2 of N=3, value 0 = no slope could be determined
  Activity of LmPC-PLC towards 4-NPPC (slope): 0.0002954 abs/min
[9]; inhibitor 63 uM, replicate 3 of N=3, value 0 = no slope could be determined
  Activity of LmPC-PLC towards 4-NPPC (slope): 0.000224 abs/min
[9]; inhibitor 125 uM, replicate 1 of N=3, value 0 = no slope could be determined
  Activity of LmPC-PLC towards 4-NPPC (slope): 8.381e-5 abs/min
[9]; inhibitor 125 uM, replicate 2 of N=3, value 0 = no slope could be determined
  Activity of LmPC-PLC towards 4-NPPC (slope): 0.0001203 abs/min
[9]; inhibitor 125 uM, replicate 3 of N=3, value 0 = no slope could be determined
  Activity of LmPC-PLC towards 4-NPPC (slope): 8.369e-5 abs/min
[7]
  Enzymatic activity towards 4-NPPC (slope): 0
